This note sets out measurements from publication PMC2625307 (Journal of molecular biology, 2008).

Assay [1] concerns the target T1, YU2 gp120 (Human immunodeficiency virus type 1 group M subtype B, UniProt P35961). The experiment in a line: Contact surface area of gp120, YU2. More on the design: species or system HIV-1.
The test system of the next assay is YU-2 env. In kind it is cell-based, HIV-1 group M. The note with it: JC53BL-13 cells, genetic distance to HXBc2 0.16766.
In another assay the test system is HIV-1 gp120. The note with it: vs biphenyl counterpart (CD4M33, CD4M47).
Assay [2] deals with T1, YU2 gp120. More on the design: species or system HIV-1. The note with it: vs other mimetics.
Another assay deals with NL4.3 env. In kind it is cell-based, HIV-1 group M. The settings on record: JC53BL-13 cells, genetic distance to HXBc2 0.05769.
In the next assay the test system is GAB-1 fl. The assay is classed as cell-based, SIVcpz (P.t.t). The settings on record: JC53BL-13 cells, genetic distance to HXBc2 0.43711.
The target in assay [3] is T1, YU2 gp120. Put plainly: Surface-plasmon resonance binding, YU2 gp120. Also noted: species or system HIV-1.
The next assay relates to MN-25. The assay is classed as cell-based, HIV-1 group M. The note with it: JC53BL-13 cells, genetic distance to HXBc2 0.17951.
The next assay has as its target HXBc2 gp120 (Human immunodeficiency virus type 1 group M subtype B, UniProt P04578). The experiment in a line: Surface-plasmon resonance binding, HXBc2 gp120. Also noted: species or system HIV-1.
Another assay relates to IIIB. In kind it is cell-based, HIV-1 group M. The note with it: PM1 cells, genetic distance to HXBc2 0.03060.
The next assay concerns BaL. In kind it is cell-based, HIV-1 group M. The settings on record: PM1 cells, genetic distance to HXBc2 0.13532.
Another assay concerns GAB-2 62 fl. In kind it is cell-based, SIVcpz (P.t.t). The settings on record: JC53BL-13 cells, genetic distance to HXBc2 0.47819.

As to `CC(C)C[C@@H]1NC(=O)CNC(=O)[C@H](CC(C)C)NC(=O)[C@H](CO)NC(=O)[C@H](CCCCN)NC(=O)[C@@H]2CSSC[C@@H](C(=O)N[C@H](C(N)=O)C(C)C)NC(=O)[C@H](C)NC(=O)[C@@H]3CSSC[C@H](NC(=O)[C@H](Cc4ccccc4)NC(=O)[C@H](Cc4c[nH]cn4)NC(=O)[C@H](CC(C)C)NC(=O)[C@H](CC(N)=O)NC(=O)CCSSC[C@H](NC(=O)[C@H](CCCCN)NC(=O)CNC(=O)[C@H](CC(C)C)NC1=O)C(=O)N[C@@H](C)C(=O)NCC(=O)N[C@@H](CO)C(=O)N[C@@H](Cc1ccccc1)C(=O)N3)C(=O)N[C@@H](CCC(N)=O)C(=O)N[C@@H](CC(C)C)C(=O)N[C@@H](CCCNC(=N)N)C(=O)N2` [[Phe^23]M33], the “Contact surface area of gp120, total” value came to 363.8 Å^2 at YU2 gp120 [1] (asymmetric unit molecule (1)) and 398.0 Å^2 at YU2 gp120 [1] (asymmetric unit molecule (2)). Besides, the IC50 in the assay with YU-2 env turned out to be 1000 nM; in the assay with NL4.3 env it was 13 nM; in the assay with GAB-1 fl, 350 nM; with MN-25 it was 3600 nM; in the assay with IIIB, 260 nM; in the assay on BaL, 200 nM. The compound also returned an IC50 in the assay with GAB-2 62 fl of 1000 nM. Besides, in the assay with HIV-1 gp120, the “on-rate compared with biphenyl counterpart” value is on record as “about half as fast”. Also, the “similarity of induced gp120 conformation to that induced by CD4” value at YU2 gp120 [2] is reported as “the closest mimic to CD4”. Besides, the Kd on YU2 gp120 [3] is 35.1 ± 0.18 nM; on HXBc2 gp120 it was 18.9 ± 0.14 nM.

As usually defined, the IC50 is the concentration that gives 50% inhibition. Low values mean higher potency, high ones lower potency. As a reminder, the Kd is the equilibrium constant for the complex coming apart. Read a low Kd as tighter binding.
